Patent US8399451B2, “Heterocyclic compounds” (Bristol-Myers Squibb Company, priority 2009, dated 2013)
Counter-ions that a name gives are not always drawn.

How the values were obtained:
[1] = target: S1P1 (Homo sapiens, UniProt P21453); assay: Receptor [35S] GTPγS Binding Assay, membranes from S1P1/CHO cells; type: biochemical; parameters: expressed in transfected cells; host or cells: S1P1/CHO cells; details: for EC50: membranes from S1P1/CHO cells, read-out: S1P1 GTPγS EC50; for S1P3/S1P1 GTPγS (ratio of S1P3 GTPγS EC50 to S1P1 GTPγS EC50): selectivity ratio calculated from Table B, * may be greater than reported value due to S1P3 assay limits
Sequence of S1P1 (P21453 whole entry): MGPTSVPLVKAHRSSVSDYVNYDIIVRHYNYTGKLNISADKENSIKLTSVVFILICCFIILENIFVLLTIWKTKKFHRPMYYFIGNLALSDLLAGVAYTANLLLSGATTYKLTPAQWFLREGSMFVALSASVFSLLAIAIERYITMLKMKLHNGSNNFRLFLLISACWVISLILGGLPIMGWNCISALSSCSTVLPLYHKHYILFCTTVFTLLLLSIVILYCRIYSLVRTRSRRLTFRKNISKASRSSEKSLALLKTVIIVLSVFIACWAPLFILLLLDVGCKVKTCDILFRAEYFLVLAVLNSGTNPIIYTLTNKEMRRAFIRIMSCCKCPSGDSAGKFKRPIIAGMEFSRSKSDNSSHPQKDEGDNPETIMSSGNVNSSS
Experimental: (§1) Receptor [35S] GTPγS Binding Assays
(§2) Membranes prepared from S1P1/CHO cells or EDG3-Ga15-bla HEK293T cells were added to the compound plate (40 μl/well, final protein 3 μg/well) with MULTIDROP®. [^35S]GTP (1250 Ci/mmol, Perkin Elmer) was diluted in assay buffer: 20 mM HEPES, pH7.5, 10 mM MgCl2, 150 mM NaCl, 1 mM EGTA, 1 mM DTT, 10 μM GDP, 0.1% fatty acid free BSA, and 10 μg/ml Saponin to 0.4 nM. 40 μl of the [^35S] GTP solution was added to the compound plate with a final concentration of 0.2 nM. […] At the end of incubation, all the mixtures in the compound plate were transferred to a 384 well FB filter plates via GPCR robot system. […] 30 μl of MicroScint 20 scintillation fluid was added to each well for counting at Packard TOPCOUNT®.

[2] = target: T1, S1P3 (Homo sapiens, UniProt Q99500); assay: Receptor [35S] GTPγS Binding Assay, membranes from EDG3-Ga15-bla HEK293T cells; type: biochemical; details: * detection limit 31,000 nM or 62,000 nM
T1 construct: expressed in transfected cells; host or cells: EDG3-Ga15-bla HEK293T cells
T1 sequence (Q99500 whole entry): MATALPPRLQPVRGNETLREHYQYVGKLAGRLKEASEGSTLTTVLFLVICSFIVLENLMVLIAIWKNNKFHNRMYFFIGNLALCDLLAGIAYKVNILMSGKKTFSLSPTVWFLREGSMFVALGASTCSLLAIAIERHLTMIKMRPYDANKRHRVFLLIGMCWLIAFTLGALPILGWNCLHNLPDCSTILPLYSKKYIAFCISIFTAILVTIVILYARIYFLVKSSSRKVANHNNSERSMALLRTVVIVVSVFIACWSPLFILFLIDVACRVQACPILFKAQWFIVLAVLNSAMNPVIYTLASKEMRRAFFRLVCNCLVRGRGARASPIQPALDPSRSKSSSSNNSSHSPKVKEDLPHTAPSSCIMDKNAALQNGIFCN
Experimental: as §1, §2

Row | SMILES | EC50 [1] | S1P3/S1P1 GTPγS (ratio of S1P3 GTPγS EC50 to S1P1 GTPγS EC50) [1] | EC50 [2]
1 | O=C(O)C[C@H]1CCCN(C[C@@H](O)c2ccc(-c3noc(-c4cnn(C5CCCCC5)c4C(F)(F)F)n3)cc2)C1 [Example 59, 2-((R)-1-((S)-2-(4-(5-(1-cyclohexyl-5-(trifluoromethyl)-1H-pyrazol-4-yl)-1,2,4-oxadiazol-3-yl)phenyl)-2-hydroxyethyl)piperidin-3-yl)acetic acid, HCl] | 1.8 nM | 1160 | 2.08 µM
2 | O=C(O)[C@H]1CCCN(C[C@@H](O)c2ccc(-c3noc(-c4cnn(C5CCCCC5)c4C(F)(F)F)n3)cc2)C1 [Example 106, (S)-1-((S)-2-(4-(5-(1-cyclohcxyl-5-(trifluoromethyl)-1H-pyrazol-4-yl)-1,2,4-oxadiazol-3-yl)phenyl)-2-hydroxyethyl) piperidine-3-carboxylic acid] | 1 nM | 2250 | 2.25 µM
3 | Cl.O=C(O)C[C@H]1CCCN(C[C@@H](O)c2ccc(-c3noc(-c4cnn(-c5ccc(F)cn5)c4C(F)(F)F)n3)cc2)C1 [Example 82, 2-((R)-1-((S)-2-(4-(5-(1-(5-fluoropyridin-2-yl)-5-(trifluoromethyl)-1H-pyrazol-4-yl)-1,2,4-oxadiazol-3-yl)phenyl)-2-hydroxyethyl)piperidin-3-yl)acetic acid, HCl] | 3 nM | 2050 | 6.09 µM
4 | O=C(O)C[C@H]1CCCN(C[C@@H](O)c2ccc(-c3noc(-c4cnn(-c5ccc(F)cc5F)c4C(F)(F)F)n3)cc2)C1 [Example 73, 2-((3R)-1-((2S)-2-(4-(5-(1-(2,4-difluorophenyl)-5-(trifluoromethyl)-1H-pyrazol-4-yl)-1,2,4-oxadiazol-3-yl)phenyl)-2-hydroxyethyl)piperidin-3-yl)acetic acid, HCl] | 2.1 nM | 1030 | 2.2 µM
5 | Cc1ccc(-n2ncc(-c3nc(-c4ccc([C@H](O)CN5CCC[C@H](CC(=O)O)C5)cc4)no3)c2C(F)(F)F)nc1 [Example 94, 2-((R)-1-((S)-2-hydroxy-2-(4-(5-(1-(5-methylpyridin-2-yl)-5-(trifluoromethyl)-1H-pyrazol-4-yl)-1,2,4-oxadiazol-3-yl)phenyl)ethyl)piperidin-3-yl)acetic acid] | 8.6 nM | 730 | 6.3 µM
6 | O=C(O)C[C@H]1CCCN(C[C@@H](O)c2ccc(-c3noc(-c4cnn(-c5ccc(Cl)cn5)c4C(F)(F)F)n3)cc2)C1 [Example 70, 2-((R)-1-((S)-2-(4-(5-(1-(5-chloropyridin-2-yl)-5-(trifluoromethyl)-1H-pyrazol-4-yl)-1,2,4-oxadiazol-3-yl)phenyl)-2-hydroxyethyl)piperidin-3-yl)acetic acid, HCl] | 1.2 nM | 8800 | 10.4 µM
7 | O=C(O)C[C@H]1CCCN(C[C@@H](O)c2ccc(-c3noc(-c4ncn(-c5ccc(Cl)cc5)c4C(F)(F)F)n3)cc2)C1 [Example 117, 2-((R)-1-((S)-2-(4-(5-(1-(4-Chlorophenyl)-5-(trifluoromethyl)-1H-imidazol-4-yl)-1,2,4-oxadiazol-3-yl)phenyl)-2-hydroxyethyl)piperidin-3-yl)acetic acid] | 26 nM | ≥ 2400* | > 62 µM

Results, then the compound that gave them:

Row | EC50 [1] | S1P3/S1P1 GTPγS (ratio of S1P3 GTPγS EC50 to S1P1 GTPγS EC50) [1] | EC50 [2] | SMILES
8 | 4.5 nM | ≥ 6900* | > 31 µM | O=C(O)[C@H]1CCCN(C[C@@H](O)c2ccc(-c3noc(-c4cnn(-c5ccccn5)c4C(F)(F)F)n3)cc2)C1 [Example 104, (S)-1-((S)-2-hydroxy-2-(4-(5-(1-(pyridin-2-yl)-5-(trifluoromethyl)-1H-pyrazol-4-yl)-1,2,4-oxadiazol-3-yl)phenyl)ethyl)pipcridine-3-carboxylic acid]
9 | 6.8 nM | ≥ 4580* | > 31 µM | O=C(O)[C@H]1CCCN(C[C@@H](O)c2ccc(-c3noc(-c4cnn(-c5ncc(Cl)cc5Cl)c4C(F)(F)F)n3)cc2)C1 [Example 100, (S)-1-((S)-2-(4-(5-(1-(3,5-dichloropyridin-2-yl)-5-(trifluoromethyl)-1H-pyrazol-4-yl)-1,2,4-oxadiazol-3-yl)phenyl)-2-hydroxyethyl) piperidine-3-carboxylic acid, HCl]
10 | 360 nM | ≥ 170* | > 62 µM | O=C(O)[C@H]1CCCN(CC(O)c2ccc(-c3noc(-c4ccc(-c5ccccn5)s4)n3)cc2)C1 (stereo partly drawn) [Example 43, (3S)-1-(2-hydroxy-2-(4-(5-(5-(pyridin-2-yl)thiophen-2-yl)-1,2,4-oxadiazol-3-yl)phenyl)ethyl)piperidine-3-carboxylic acid]
11 | 69 nM | ≥ 910* | > 62 µM | Cc1cccc(-c2noc(-c3nc(-c4ccc(C(O)CN5CCC[C@H](C(=O)O)C5)cc4)no3)c2C(F)(F)F)n1 (stereo partly drawn) [Example 37, (3S)-1-(2-Hydroxy-2-(4-(5-(3-(6-methylpyridin-2-yl)-4-(trifluoromethyl)isoxazol-5-yl)-1,2,4-oxadiazol-3-yl)phenyl)ethyl)piperidine-3-carboxylic acid]
12 | 3 nM | 1100 | 3.3 µM | O=C(O)[C@H]1CCCN(C[C@@H](O)c2ccc(-c3noc(-c4cnn(-c5ccc(C(F)(F)F)cn5)c4C(F)(F)F)n3)cc2)C1 [Example 98, (S)-1-((S)-2-hydroxy-2-(4-(5-(5-(trifluoromethyl)-1-(5-(trifluoromethyl)pyridin-2-yl)-1H-pyrazol-4-yl)-1,2,4-oxadiazol-3-yl)phenyl)ethyl)piperidine-3-carboxylic acid, HCl]
13 | 3.6 nM | 6900 | 24.8 µM | O=C(O)C[C@H]1CCCN(C[C@@H](O)c2ccc(-c3noc(-c4cnn(-c5ccccc5Cl)c4C(F)(F)F)n3)cc2)C1 [Example 72, 2-((3R)-1-((2S)-2-(4-(5-(1-(2-chlorophenyl)-5-(trifluoromethyl)-1H-pyrazol-4-yl)-1,2,4-oxadiazol-3-yl)phenyl)-2-hydroxyethyl)piperidin-3-yl)acetic acid, HCl]
14 | 5.4 nM | 1400 | 7.5 µM | O=C(O)[C@H]1CCCCN1CC(O)c1ccc(-c2noc(-c3onc(-c4ccccc4)c3C(F)(F)F)n2)cc1 (stereo partly drawn) [Example 41, (2R)-1-(2-Hydroxy-2-(4-(5-(3-phenyl-4-(trifluoromethyl)isoxazol-5-yl)-1,2,4-oxadiazol-3-yl)phenyl)ethyl)piperidine-2-carboxylic acid]
15 | 630 nM | 13 | 8.1 µM | Cc1nc(-c2ccccc2)sc1-c1nc(-c2ccc(C(O)CN3CCC[C@H](C(=O)O)C3)cc2)no1 (stereo partly drawn) [Example 46, (3S)-1-(2-hydroxy-2-(4-(5-(4-methyl-2-phenylthiazol-5-yl)-1,2,4-oxadiazol-3-yl)phenyl)ethyl)piperidine-3-carboxylic acid]
16 | 1900 nM | ≥ 16* | > 31 µM | O=C(O)[C@H]1CCCN(CC(O)c2ccc(-c3noc(-c4cc(-c5ccc(Cl)cc5)on4)n3)cc2)C1 (stereo partly drawn) [Example 53, (3S)-1-(2-(4-(5-(5-(4-chlorophenyl)isoxazol-3-yl)-1,2,4-oxadiazol-3-yl)phenyl)-2-hydroxyethyl)piperidine-3-carboxylic acid]
